Assay results reported in PubChem BioAssay AID2060909 (Molecular Pharmacology Branch, DTP, NCI, 2025).

Test system: 362531-283-R-J2-PDC complex spheroid viability
Assay: Anticancer human tumor 362531-283-R-J2-PDC patient-derived colon adenocarcinoma cell line growth inhibition [RAS]
Conditions: for viability, T/C: stronger effect = lower value
Outline: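 Tumour cells grown as complex spheroids with HUVEC endothelial cells and mesenchymal stem cells, treated with RAS pathway inhibitor combinations. Each agent spans half-log steps from near clinical Cmax, or 10 microM where Cmax is unknown.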
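Further: spheroids exposed to the agents for 7 days before readout.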
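Wherever viability, T/C is given: luminescence viability as percent of DMSO vehicle control wells.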

Compound: CC1(O)CCCC1n1c(=O)c(C(F)F)cc2cnc(NC3CCN(S(C)(=O)=O)CC3)nc21 (stereo not given) + CCn1c(-c2cccnc2C(C)OC)c2c3cc(ccc31)N1CCOC(CC(NC(=O)C(C(C)C)N(C)C(=O)C3(F)CCN(C(=O)C#CC(C)(C)N(C)C)CC3)C(=O)N3CCCC(N3)C(=O)OCC(C)(C)C2)C1
- IC50 (curve of first compound, second compound 0.000949 µM): > 10 µM
- IC50 (curve of first compound, second compound 0.003 µM): 6.21 µM
- IC50 (curve of first compound, second compound 0.00949 µM): > 10 µM
- IC50 (curve of first compound, second compound 0.03 µM): 4.98 µM
- IC50 (curve of first compound, second compound 0.0949 µM): > 10 µM
- IC50 (curve of first compound, second compound 0.3 µM): > 10 µM
- viability, T/C (second compound 0.000949 µM, first compound 0.0316 µM): 97.1%
- viability, T/C (second compound 0.000949 µM, first compound 0.1 µM): 113%
- viability, T/C (second compound 0.000949 µM, first compound 0.316 µM): 92.2%
- viability, T/C (second compound 0.000949 µM, first compound 1 µM): 70%
- viability, T/C (second compound 0.000949 µM, first compound 3.16 µM): 55%
- viability, T/C (second compound 0.000949 µM, first compound 10 µM): 73.7%
- viability, T/C (second compound 0.003 µM, first compound 0.0316 µM): 102%
- viability, T/C (second compound 0.003 µM, first compound 0.1 µM): 92.1%
- viability, T/C (second compound 0.003 µM, first compound 0.316 µM): 89.8%
- viability, T/C (second compound 0.003 µM, first compound 1 µM): 72%
- viability, T/C (second compound 0.003 µM, first compound 3.16 µM): 57.9%
- viability, T/C (second compound 0.003 µM, first compound 10 µM): 44.6%
- viability, T/C (second compound 0.00949 µM, first compound 0.0316 µM): 108%
- viability, T/C (second compound 0.00949 µM, first compound 0.1 µM): 110%
- viability, T/C (second compound 0.00949 µM, first compound 0.316 µM): 84%
- viability, T/C (second compound 0.00949 µM, first compound 1 µM): 72.4%
- viability, T/C (second compound 0.00949 µM, first compound 3.16 µM): 50.5%
- viability, T/C (second compound 0.00949 µM, first compound 10 µM): 53.9%
- viability, T/C (second compound 0.03 µM, first compound 0.0316 µM): 103%
- viability, T/C (second compound 0.03 µM, first compound 0.1 µM): 97%
- viability, T/C (second compound 0.03 µM, first compound 0.316 µM): 77.7%
- viability, T/C (second compound 0.03 µM, first compound 1 µM): 63%
- viability, T/C (second compound 0.03 µM, first compound 3.16 µM): 63.9%
- viability, T/C (second compound 0.03 µM, first compound 10 µM): 38.9%
- viability, T/C (second compound 0.0949 µM, first compound 0.0316 µM): 102%
- viability, T/C (second compound 0.0949 µM, first compound 0.1 µM): 91%
- viability, T/C (second compound 0.0949 µM, first compound 0.316 µM): 94.5%
- viability, T/C (second compound 0.0949 µM, first compound 1 µM): 58.9%
- viability, T/C (second compound 0.0949 µM, first compound 3.16 µM): 53.9%
- viability, T/C (second compound 0.0949 µM, first compound 10 µM): 54.7%
- viability, T/C (second compound 0.3 µM, first compound 0.0316 µM): 100%
- viability, T/C (second compound 0.3 µM, first compound 0.1 µM): 87.4%
- viability, T/C (second compound 0.3 µM, first compound 0.316 µM): 87.7%
- viability, T/C (second compound 0.3 µM, first compound 1 µM): 66%
- viability, T/C (second compound 0.3 µM, first compound 3.16 µM): 56.9%
- viability, T/C (second compound 0.3 µM, first compound 10 µM): 51.4%

Compound: C[C@@H](NC(=O)c1ncnc(N)c1Cl)c1ncc(C(=O)Nc2cc(C(F)(F)F)c(Cl)cn2)s1 + C#Cc1c(F)ccc2cc(O)cc(-c3ncc4c(N5CC6CCC(C5)N6)nc(OCC56CCCN5CC(F)C6)nc4c3F)c12
- IC50 (curve of first compound, second compound 0.0316 µM): > 10 µM
- IC50 (curve of first compound, second compound 0.1 µM): > 10 µM
- IC50 (curve of first compound, second compound 0.316 µM): > 10 µM
- IC50 (curve of first compound, second compound 1 µM): > 10 µM
- IC50 (curve of first compound, second compound 3.16 µM): 8.75 µM
- IC50 (curve of first compound, second compound 10 µM): 3.61 µM
- viability, T/C (second compound 0.0316 µM, first compound 0.0316 µM): 92.9%
- viability, T/C (second compound 0.0316 µM, first compound 0.1 µM): 111%
- viability, T/C (second compound 0.0316 µM, first compound 0.316 µM): 111%
- viability, T/C (second compound 0.0316 µM, first compound 1 µM): 97%
- viability, T/C (second compound 0.0316 µM, first compound 3.16 µM): 92.4%
- viability, T/C (second compound 0.0316 µM, first compound 10 µM): 70.5%
- viability, T/C (second compound 0.1 µM, first compound 0.0316 µM): 104%
- viability, T/C (second compound 0.1 µM, first compound 0.1 µM): 97.1%
- viability, T/C (second compound 0.1 µM, first compound 0.316 µM): 94.8%
- viability, T/C (second compound 0.1 µM, first compound 1 µM): 95.3%
- viability, T/C (second compound 0.1 µM, first compound 3.16 µM): 93.6%
- viability, T/C (second compound 0.1 µM, first compound 10 µM): 66.1%
- viability, T/C (second compound 0.316 µM, first compound 0.0316 µM): 94.2%
- viability, T/C (second compound 0.316 µM, first compound 0.1 µM): 96.9%
- viability, T/C (second compound 0.316 µM, first compound 0.316 µM): 93.4%
- viability, T/C (second compound 0.316 µM, first compound 1 µM): 94.4%
- viability, T/C (second compound 0.316 µM, first compound 3.16 µM): 91.6%
- viability, T/C (second compound 0.316 µM, first compound 10 µM): 60.7%
- viability, T/C (second compound 1 µM, first compound 0.0316 µM): 94.3%
- viability, T/C (second compound 1 µM, first compound 0.1 µM): 84.8%
- viability, T/C (second compound 1 µM, first compound 0.316 µM): 99.3%
- viability, T/C (second compound 1 µM, first compound 1 µM): 87%
- viability, T/C (second compound 1 µM, first compound 3.16 µM): 92.8%
- viability, T/C (second compound 1 µM, first compound 10 µM): 52.5%
- viability, T/C (second compound 3.16 µM, first compound 0.0316 µM): 78.6%
- viability, T/C (second compound 3.16 µM, first compound 0.1 µM): 80.3%
- viability, T/C (second compound 3.16 µM, first compound 0.316 µM): 79.2%
- viability, T/C (second compound 3.16 µM, first compound 1 µM): 74.1%
- viability, T/C (second compound 3.16 µM, first compound 3.16 µM): 69.8%
- viability, T/C (second compound 3.16 µM, first compound 10 µM): 47.2%
- viability, T/C (second compound 10 µM, first compound 0.0316 µM): 63%
- viability, T/C (second compound 10 µM, first compound 0.1 µM): 75.4%
- viability, T/C (second compound 10 µM, first compound 0.316 µM): 71.7%
- viability, T/C (second compound 10 µM, first compound 1 µM): 60.6%
- viability, T/C (second compound 10 µM, first compound 3.16 µM): 53.4%
- viability, T/C (second compound 10 µM, first compound 10 µM): 31.6%

Compound: O=C(c1ccc(F)c(F)c1Nc1ccc(I)cc1F)N1CC(O)([C@@H]2CCCCN2)C1
- viability, T/C (compound 0.00316 µM): 100% [middle of 4 runs]
- viability, T/C (compound 0.01 µM): 94.8% [middle of 4 runs]
- viability, T/C (compound 0.1 µM): 90.7% [middle of 4 runs]
- viability, T/C (compound 0.316 µM): 64.7% [middle of 4 runs]
- viability, T/C (compound 1 µM): 19% [middle of 4 runs]
- IC50 (curve of compound): 507 nM [middle of 4 runs]
